These results are taken from patent US20070270312A1, “Heteroaroyl-Substituted Serineamides” (priority 2004, published 2007).

The subject of one data set is Amaranthus retroflexus. Briefly: greenhouse post-emergence herbicidal test, pig weed. In kind it is in vivo. As to conditions: 2 to 4 weeks; for post-emergence control of pig weed: application rate 0.5 kg/ha a.s.; for post-emergence action against pig weed: application rate 1.0 kg/ha a.s. The source says:
(§1) The seeds of the test plants were sown separately for each species. For the post-emergence treatment, the test plants were first grown to a height of 3 to 15 cm, depending on the plant habit, and only then treated with the active ingredients which had been suspended or emulsified in water. For this purpose, the test plants were either sown directly and grown in the same containers, or they were first grown separately as seedlings and transplanted into the test containers a few days prior to treatment. The rate of application for the post-emergence treatment was 1.0 or 0.5 kg/ha of a.s. (active substance). Depending on the species, the plants were kept at 10-25° C. or 20-35° C. The test period extended over 2 to 4 weeks. During this time, the plants were tended, and their response to the individual treatments was evaluated. Evaluation was carried out using a scale from 0 to 100.100 means no emergence of the plants, or complete destruction of at least the aerial parts, and 0 means no damage, or normal course of growth. The plants used in the greenhouse experiments belonged to the following species: [table]

A further data set has as its system Chenopodium album. Briefly: greenhouse post-emergence herbicidal test, lambsquarters. The format is in vivo. The settings on record: 2 to 4 weeks; for post-emergence control of lambsquarters: application rate 0.5 kg/ha a.s.; for post-emergence action against lambsquarters: application rate 1.0 kg/ha a.s.
Description: as §1

The test system of the next data set is Setaria viridis. As to the kind of experiment: greenhouse post-emergence herbicidal test, green foxtail. The settings on record: 2 to 4 weeks; for post-emergence control of green foxtail: application rate 0.5 kg/ha a.s.; for post-emergence action against green foxtail: application rate 1.0 kg/ha a.s. In kind it is in vivo.
Description: as §1

What is called melting point is the temperature of the solid-liquid transition.

With `CNC(=O)C(NC(=O)c1cn(C)nc1C(F)(F)F)C(OC(=O)N(C)C)c1cccs1` (mixture of isomers) [Compound 3.6], the “post-emergence control of pig weed” value with Amaranthus retroflexus is “very good”. Moreover, the “post-emergence control of lambsquarters” value in the data set with Chenopodium album was “very good”. In addition, in the data set with Setaria viridis, the “post-emergence control of green foxtail” value is “very good”.
Regarding `CNC(=O)C(NC(=O)c1cn(C)nc1C(F)(F)F)C(OC(=O)N(C)C)c1nccs1` (mixture of isomers) [Compound 3.57], the “post-emergence action against pig weed” value with Amaranthus retroflexus is listed as “very good”. In addition, the “post-emergence action against lambsquarters” value with Chenopodium album is reported as “very good”. Further, the “post-emergence action against green foxtail” value with Setaria viridis is “very good”.
Turning to `CNC(=O)C(NC(=O)c1cscc1C(F)(F)F)C(O)c1cnc2ccccc2c1` (racemic) [Compound 3.15, rac-erythro-N-(2-hydroxy-1-methylcarbamoyl-2-quinolin-3-ylethyl)-4-trifluoromethyl-thiophene-3-carboxamide], the melting point is 206 °C.
Regarding `CNC(=O)C(NC(=O)c1cn(C)nc1C(F)(F)F)C(O)c1cccc(C)n1` (racemic) [Compound 3.2], in the data set with Amaranthus retroflexus, the “post-emergence control of pig weed” value is recorded as “very good”. In addition, the “post-emergence control of lambsquarters” value with Chenopodium album is “very good”. Also, the “post-emergence control of green foxtail” value with Setaria viridis is on record as “very good”.
For the compound `CNC(=O)C(NC(=O)c1cn(C)nc1C(F)(F)F)C(OC(C)=O)c1nccs1` (mixture of isomers) [Compound 3.54], the “post-emergence control of pig weed” value in the data set with Amaranthus retroflexus is listed as “very good”. In addition, the “post-emergence control of lambsquarters” value in the data set on Chenopodium album was “very good”. In the data set on Setaria viridis, the “post-emergence control of green foxtail” value is given as “very good”.
In the case of `CNC(=O)C(NC(=O)c1cn(C)nc1C(F)(F)F)C(OC(C)=O)c1ccn[nH]1` (mixture of isomers) [Compound 3.19], the “post-emergence control of pig weed” value with Amaranthus retroflexus is given as “very good”. Moreover, the “post-emergence control of lambsquarters” value in the data set on Chenopodium album was “very good”. Further, in the data set on Setaria viridis, the “post-emergence control of green foxtail” value is reported as “very good”.
For `CNC(=O)C(NC(=O)c1cn(C)nc1C(F)(F)F)C(O)c1ccn[nH]1` (mixture of isomers) [Compound 3.17], the “post-emergence action against pig weed” value in the data set with Amaranthus retroflexus is “very good”. Further, in the data set with Chenopodium album, the “post-emergence action against lambsquarters” value is “very good”. The “post-emergence action against green foxtail” value in the data set on Setaria viridis is “very good”.
Regarding `CNC(=O)C(NC(=O)c1cn(C)nc1C(F)(F)F)C(O)c1ccccn1` (racemic) [Compound 3.1], the “post-emergence action against pig weed” value with Amaranthus retroflexus is reported as “very good”. The “post-emergence action against lambsquarters” value with Chenopodium album is recorded as “very good”. In addition, in the data set with Setaria viridis, the “post-emergence action against green foxtail” value is listed as “very good”.
With `CNC(=O)C(NC(=O)c1cn(C)nc1C(F)(F)F)C(O)c1nccs1` (mixture of isomers) [Compound 3.51], the “post-emergence action against pig weed” value in the data set on Amaranthus retroflexus is reported as “very good”. Besides, the “post-emergence action against lambsquarters” value in the data set on Chenopodium album is listed as “very good”. The “post-emergence action against green foxtail” value in the data set with Setaria viridis was “very good”.
With `CNC(=O)C(NC(=O)c1cn(C)nc1C(F)(F)F)C(O)c1nccs1` (mixture of isomers) [Compound 3.52], the “post-emergence action against pig weed” value with Amaranthus retroflexus is given as “very good”. For the same compound, the “post-emergence action against lambsquarters” value with Chenopodium album is listed as “very good”. The “post-emergence action against green foxtail” value with Setaria viridis is listed as “very good”.
As for `CNC(=O)C(NC(=O)c1cn(C)nc1C(F)(F)F)C(OC(=O)N(C)C)c1nccs1` (mixture of isomers) [Compound 3.59], the “post-emergence action against pig weed” value in the data set on Amaranthus retroflexus is given as “very good”. Further, the “post-emergence action against lambsquarters” value in the data set with Chenopodium album is listed as “very good”. Besides, the “post-emergence action against green foxtail” value in the data set on Setaria viridis is given as “very good”.
Take `CNC(=O)C(NC(=O)c1cn(C)nc1C(F)(F)F)C(O)c1cccs1` (mixture of isomers) [Compound 3.5]: the “post-emergence action against pig weed” value in the data set on Amaranthus retroflexus is recorded as “very good”. In addition, the “post-emergence action against lambsquarters” value with Chenopodium album was “very good”. For the same compound, the “post-emergence action against green foxtail” value with Setaria viridis is “very good”.
On to `CNC(=O)C(NC(=O)c1cn(C)nc1C(F)(F)F)C(O)c1ccn(C)n1` (racemic) [Compound 3.33], for which the “post-emergence action against pig weed” value in the data set on Amaranthus retroflexus is reported as “very good”. Besides, the “post-emergence action against lambsquarters” value with Chenopodium album is “very good”. Also, the “post-emergence action against green foxtail” value with Setaria viridis is “very good”.
